In US20240307326A1, “DOSAGE FORMS OF MIRDAMETINIB” (SpringWorks Therapeutics, Inc., priority 2023, published 2024):

How the values were obtained:
[1] = Particle size of mirdametinib drug substance lots (laser diffraction particle sizing); type: physicochemical; details: mirdametinib free base drug substance
Description: As used herein, “D50” or “d50”, also known as the median diameter, corresponds to the value under which 50% of the particles has a lower volume diameter. “D90” or “d90” corresponds to the value under which 90% of the particles has a lower volume diameter. The particle size may be measured using wet standard laser diffraction particle sizing techniques known in the art. One example of an instrument to measure the particle size of the dry powders is the Mastersizer 3000, manufactured by Malvern Panalytical Ltd. (Malvern, UK). As particles are often non-spherical, it is difficult and complex to provide dimensional descriptions of these non-spherical particles. As used herein, “volume diameter” refers to diameter of a sphere with equal volume of the non-spherical particle.
(§1) Mirdametinib free base (Lots #1, 2, and 3) having the properties in the table below were prepared.

[2] = Bulk and tap density, Carr's Index of drug substance lots; type: physicochemical; details: mirdametinib free base drug substance
Description: as §1

In the case of O=C(NOC[C@H](O)CO)c1ccc(F)c(F)c1Nc1ccc(I)cc1F [Lot 2, N—((R)-2,3-dihydroxypropoxy)-3,4-difluoro-2-(2-fluoro-4-iodo-phenylamino)benzamide], the D10 [1] is reported as 7.6 μm, the D50 [1] is reported as 28.4 μm and the D90 [1] is reported as 120.7 μm. For the same molecule, the Bulk density [2] was 0.197 g/mL, the “Carr's Index” value [2] was 54.6 and the Tap density [2] was 0.434 g/mL.

O=C(NOC[C@H](O)CO)c1ccc(F)c(F)c1Nc1ccc(I)cc1F [Lot 1, N—((R)-2,3-dihydroxypropoxy)-3,4-difluoro-2-(2-fluoro-4-iodo-phenylamino)benzamide] showed a D10 [1] of 4.9 μm, a D50 [1] of 20.9 μm and a D90 [1] of 101.5 μm. For the same molecule, the Bulk density [2] was 0.169 g/mL, the “Carr's Index” value [2] was 57.1 and the Tap density [2] was 0.394 g/mL.

With O=C(NOC[C@H](O)CO)c1ccc(F)c(F)c1Nc1ccc(I)cc1F [Lot 3, N—((R)-2,3-dihydroxypropoxy)-3,4-difluoro-2-(2-fluoro-4-iodo-phenylamino)benzamide] the D10 [1] was 17.8 μm, the D50 [1] was 46.5 μm and the D90 [1] was 217.1 μm.
